This is an account of results in patent publication US20230073125A1, “PERIODONTAL MICROPATCH AND USES THEREOF” (priority 2019, published 2023).

The test system of one series is M1 (and M0) macrophages. Put plainly: Macrophage polarization, transwell, flow cytometry and qPCR. It is filed as cell-based, rat. The note with it: treatment with IL-4; qPCR of markers and cytokines. The protocol:
Costar transwell inserts (pore size 1 μm) was used for assessing the effectiveness of the released factor(s) on the polarization of macrophages and differentiation of T cells. Patches containing cytokines (4 experimental groups: no drug, IL-4 alone, TGF-β alone and IL-4/TGF-β) placed in the upper chamber. The bottom chamber contains artificial saliva modified media and 10^5 of either primary monocytes or naïve T cells or both (5×10^4). The isolation of primary monocytes was performed as described. Naïve T cells isolated using EasySep Rat T Cell Isolation Kit (STEMCELL Technologies) according to manufacturer's protocol. The change in macrophage phenotypes tested at different time points (day 1-5) using flow cytometry by checking the surface markers (M1): major histocompatibility complex class II (MHC II), CCR7, CD80 and CD86; M2: CD163 (M2c) and CD206 (M2a)). […] Quantitative PCR (qPCR) was used to determine the gene expression of these inflammatory cytokines and cellular markers (as exemplified in FIG. 11D). […] The expression of Foxp3 was measured by flow cytometry. […]
Costar transwell inserts (pore size 1 μm) were used to assess the effectiveness of released factor(s) on macrophage polarization and T cell differentiation. […] Quantitative PCR (qPCR) was used to determine gene expression of inflammatory cytokines and cellular markers (as exemplified in FIG. 23A-23B). […]
On the technique in general: A flow cytometer gives signals particle by particle.

Series [1] can be described thus: Cytokine loading and release from microparticles/microneedles in artificial saliva, ELISA. It is filed as physicochemical. The note with it: 37° C., up to four weeks. An excerpt:
For high quality periodontal treatment, the periodontal patch should act as an immunomodulator by delivering small molecules drugs and/or bioactive molecules to control infection (e.g., with antibiotics), modulate inflammation (e.g., FIG. 11A) and induce the recovery of alveolar bone. Here we used same method as described in Approach 1 to fabricate microneedles (FIG. 10A). IL-4- or TGF-β-loaded silica-heparin microparticles mixed with polymer (e.g., alginate) solution and cast into the molds to generate the microneedle patches. […] At selected time intervals (every 12 hour), the medium was collected and analyzed for released proteins using ELISA Kits. At the end of release study, the remaining proteins extracted from the particles/needles by dissolving them and the percentage of cumulative released proteins measured according to methods explained before. The released percentage measured based on the ratio of the amount released at each time point to the amount that was initially loaded. […]
The microneedle chemical formulation can be further modified for co-encapsulation of both small molecule antibiotics (encapsulated in PLGA NPs) and cytokines (encapsulated in alginate-heparin microparticles), which was integrated and addressed in Aim 3. […] At selected time intervals (every 12 hours), media was collected and analyzed for released proteins using ELISA. […]

The next series has as its system periodontal disease. Conditions: 40 ng local administration per treatment, rat model; cited from earlier work.
A further series deals with naïve CD4+ T-cells. In words: Induced Treg differentiation, Foxp3/CD25 by flow cytometry. Conditions: soluble (no particles) TGF-β. It is filed as cell-based, rat.

Description for naïve CD4+ T-cells: Activation and differentiation of T cells were tested by considering expression of CD25 surface activation marker (FIG. 11C) as well as intracellular expression of the transcription factor Foxp3. […] We also tested the ability of controlling differentiation of naïve T-cells into induced Treg by providing sustained release TGF-β from alginate-based particles. We cultured rigorously naïve CD4+ T-cells with anti-CD3 and anti-CD28 for 4 days in the wells containing the microparticles loaded with TGF-β at different concentrations and compared them to the soluble (no particles) counterparts at identical concentrations. The expression of Foxp3 was measured by flow cytometry. […] T cell activation and differentiation was tested by expression of CD25 surface activation marker and intracellular expression of the transcription factor Foxp3.

For interleukin 4 [IL-4], the macrophage reprogramming result in the series with M1 (and M0) macrophages was “successful reprograming of M1 (and M0) macrophages toward M2”. For the same substance, the “cytokine release from designed platforms” value in series [1] is on record as “prolonged release”. In addition, in the series with periodontal disease, the bone regeneration entry is listed as “helps regenerate bone” and the periodontal disease progression result is listed as “reduces periodontal disease progression”.
For the substance transforming growth factor beta [TGF-β], the “Foxp3 expression at very high soluble concentrations” value in the series on naïve CD4+ T-cells is “plateaued and was even slightly suppressed”. Further, the “cytokine release from designed platforms” value in series [1] was “prolonged release”.
